According to PubChem BioAssay AID330 (DTP/NCI, 2004):
Where “and” joins values, the source holds several entries; their conditions need not be identical. Equal values may be shown once. Toxic doses and inconclusive results are not listed. The calls were made as follows: active = survival T/C of 150% or more; inactive = T/C below 125% in these data.

Test system: P388 leukemia ip, CD2F1 mice, survival T/C
Assay: NCI In Vivo Anticancer Drug Screen. Data for tumor model P388 Leukemia (intraperitoneal) in CD2F1 (CDF1) mice
Details: endpoint: median survival time, higher = longer survival
How it was run: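 Mice carrying the transplanted tumor received test compound or vehicle. Survival was recorded in each group, and the value is the treated-group measurement divided by that of the vehicle-treated control group.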

[1] = dose: 60.0 mg/kg/injection, schedule: Q01DX005 (ip), vehicle: saline
[2] = dose: 120.0 mg/kg/injection, schedule: Q01DX005 (ip), vehicle: saline
[3] = dose: 60.0 mg/kg/injection, schedule: Q01DX005 (ip), vehicle: Klucel (hydroxypropylcellulose) (HPC)
[4] = dose: 120.0 mg/kg/injection, schedule: Q01DX005 (ip), vehicle: Klucel (hydroxypropylcellulose) (HPC)
[5] = dose: 25.0 mg/kg/injection, schedule: Q01DX005 (ip), vehicle: Klucel (hydroxypropylcellulose) (HPC)
[6] = dose: 50.0 mg/kg/injection, schedule: Q01DX005 (ip), vehicle: Klucel (hydroxypropylcellulose) (HPC)
[7] = dose: 100.0 mg/kg/injection, schedule: Q01DX005 (ip), vehicle: Klucel (hydroxypropylcellulose) (HPC)
[8] = dose: 50.0 mg/kg/injection, schedule: Q01DX009 (ip), vehicle: saline
[9] = dose: 100.0 mg/kg/injection, schedule: Q01DX009 (ip), vehicle: saline
[10] = dose: 200.0 mg/kg/injection, schedule: Q01DX009 (ip), vehicle: saline
[11] = dose: 100.0 mg/kg/injection, schedule: Q01DX001 (ip), vehicle: saline with Tween-80
[12] = dose: 200.0 mg/kg/injection, schedule: Q01DX001 (ip), vehicle: saline with Tween-80
[13] = dose: 400.0 mg/kg/injection, schedule: Q01DX001 (ip), vehicle: saline with Tween-80
[14] = dose: 200.0 mg/kg/injection, schedule: Q01DX005 (ip), vehicle: Klucel (hydroxypropylcellulose) (HPC)
[15] = dose: 50.0 mg/kg/injection, schedule: Q01DX009 (ip), vehicle: Klucel (hydroxypropylcellulose) (HPC)
[16] = dose: 100.0 mg/kg/injection, schedule: Q01DX009 (ip), vehicle: Klucel (hydroxypropylcellulose) (HPC)
[17] = dose: 100.0 mg/kg/injection, schedule: Q01DX009 (ip), vehicle: saline with Tween-80
[18] = dose: 50.0 mg/kg/injection, schedule: Q01DX005 (ip), vehicle: saline with Tween-80
[19] = dose: 100.0 mg/kg/injection, schedule: Q01DX005 (ip), vehicle: saline with Tween-80
[20] = dose: 200.0 mg/kg/injection, schedule: Q01DX009 (ip), vehicle: Klucel (hydroxypropylcellulose) (HPC)
[21] = dose: 50.0 mg/kg/injection, schedule: Q01DX009 (ip), vehicle: saline with Tween-80

Measured: T/C

CCO/C=C(/C#N)C(=O)OC
inactive: dose: 100.0 mg/kg/injection, schedule: Q04DX002 (ip), vehicle: saline 100 % of control | dose: 200.0 mg/kg/injection, schedule: Q04DX002 (ip), vehicle: saline 101 % of control | dose: 400.0 mg/kg/injection, schedule: Q04DX002 (ip), vehicle: saline 100 % of control

CS(=O)(=O)CC(=N\N)/C(CS(C)(=O)=O)=N/N
inactive: [1] 100 % of control | [2] 100 % of control | dose: 240.0 mg/kg/injection, schedule: Q01DX005 (ip), vehicle: saline 108 % of control

CC(=O)Cc1nc2ccccc2[nH]c1=O
inactive: dose: 15.0 mg/kg/injection, schedule: Q01DX005 (ip), vehicle: Klucel (hydroxypropylcellulose) (HPC) 92 % of control | dose: 30.0 mg/kg/injection, schedule: Q01DX005 (ip), vehicle: Klucel (hydroxypropylcellulose) (HPC) 90 % of control and 96 % of control | [3] 90 % of control and 98 % of control | [4] 91 % of control | dose: 240.0 mg/kg/injection, schedule: Q01DX005 (ip), vehicle: Klucel (hydroxypropylcellulose) (HPC) 100 % of control

CO/N=C(\N)NC(=O)Cc1c(Cl)cccc1Cl
inactive: dose: 6.25 mg/kg/injection, schedule: Q01DX005 (ip), vehicle: Klucel (hydroxypropylcellulose) (HPC) 94 % of control | dose: 12.5 mg/kg/injection, schedule: Q01DX005 (ip), vehicle: Klucel (hydroxypropylcellulose) (HPC) 98 % of control | [5] 100 % of control and 101 % of control | [6] 103 % of control and 90 % of control | [7] 100 % of control

COc1ccc(C(=O)N/N=C2\C(=O)c3c(C)cc(C)cc3CC2(C)C)cc1
inactive: [8] 100 % of control | [9] 100 % of control | [10] 94 % of control

CCOc1ccc2nc3cc(N=Nc4cc5ccccc5[nH]4)ccc3c(N)c2c1
inactive: [11] 97 % of control | [12] 94 % of control | [13] 103 % of control

CCOc1ccc(-c2nc(Cl)nc(Cl)n2)c2ccccc12
inactive: [3] 104 % of control | [4] 111 % of control

CC(C)CCCC(C)Cc1cc(CC(C)CCCC(C)C)n(C)n1 (configuration not stated)
inactive: [5] 108 % of control and 109 % of control and 97 % of control | [6] 102 % of control and 109 % of control and 96 % of control | [7] 101 % of control and 105 % of control and 111 % of control | [14] 108 % of control and 121 % of control and 96 % of control | dose: 400.0 mg/kg/injection, schedule: Q01DX005 (ip), vehicle: Klucel (hydroxypropylcellulose) (HPC) 100 % of control

CC(=O)Oc1c(C)c(C)c(OC(C)=O)c(OC(C)=O)c1C
inactive: dose: 100.0 mg/kg/injection, schedule: Q04DX002 (ip), vehicle: Klucel (hydroxypropylcellulose) (HPC) 93 % of control | dose: 200.0 mg/kg/injection, schedule: Q04DX002 (ip), vehicle: Klucel (hydroxypropylcellulose) (HPC) 96 % of control | dose: 400.0 mg/kg/injection, schedule: Q04DX002 (ip), vehicle: Klucel (hydroxypropylcellulose) (HPC) 90 % of control

CC1(C)C(=O)N(Br)C(=O)N1Br
inactive: dose: 12.5 mg/kg/injection, schedule: Q01DX009 (ip), vehicle: Klucel (hydroxypropylcellulose) (HPC) 101 % of control | dose: 25.0 mg/kg/injection, schedule: Q01DX009 (ip), vehicle: Klucel (hydroxypropylcellulose) (HPC) 99 % of control | [15] 99 % of control | [16] 90 % of control

CCN(CCO)CC1CCCC2CCCCC21 (configuration not stated)
inactive: [1] 92 % of control | [2] 98 % of control

Cc1ccc(S(=O)(=O)CC(=O)c2ccc(Br)cc2)cc1
inactive: [17] 92 % of control

Nc1nc(Cc2ccccc2)c(-c2ccccc2)c(-c2nc(N)nc(Cc3ccccc3)c2-c2ccccc2)n1
inactive: dose: 60.0 mg/kg/injection, schedule: Q01DX005 (ip), vehicle: saline with Tween-80 100 % of control | dose: 120.0 mg/kg/injection, schedule: Q01DX005 (ip), vehicle: saline with Tween-80 105 % of control | dose: 240.0 mg/kg/injection, schedule: Q01DX005 (ip), vehicle: saline with Tween-80 99 % of control

CC1(C)S[C@@H]2C(Cl)=C(Cl)C(=O)N2[C@H]1C(=O)O
inactive: [18] 91 % of control | [19] 91 % of control

Cc1ccnc(Sc2ccc([N+](=O)[O-])cc2[N+](=O)[O-])n1
inactive: [8] 102 % of control | [9] 104 % of control | [10] 100 % of control

COC(=O)c1cc(C#N)n2ccc3ccccc3c12
inactive: [15] 105 % of control | [16] 104 % of control | [20] 94 % of control

O=C(O)CN(CCN(CC(=O)O)CC(=O)O)CC(=O)O.[O]=[Mo]1[O][Mo](=[O])[O]1
inactive: [8] 89 % of control | [9] 90 % of control

O=C(NC1CCCCC1)O/N=C/c1ccc2c(c1)OCO2
inactive: [21] 93 % of control | [17] 86 % of control | dose: 200.0 mg/kg/injection, schedule: Q01DX009 (ip), vehicle: saline with Tween-80 86 % of control

CSCC1COC(=O)N1 (configuration not stated)
inactive: dose: 100.0 mg/kg/injection, schedule: Q04DX002 (ip), vehicle: distilled water + alcohol 100 % of control | dose: 200.0 mg/kg/injection, schedule: Q04DX002 (ip), vehicle: distilled water + alcohol 106 % of control | dose: 400.0 mg/kg/injection, schedule: Q04DX002 (ip), vehicle: distilled water + alcohol 100 % of control

COc1cc(O)c(/C=N/Nc2ccc3ccccc3n2)c(OC)c1
inactive: [11] 91 % of control | [12] 104 % of control | [13] 89 % of control

O=C(O)c1cc(N2C(=O)c3ccc4c5ccc6c7c(ccc(c8ccc(c3c48)C2=O)c75)C(=O)N(c2ccc(O)c(C(=O)O)c2)C6=O)ccc1O
inactive: [8] 98 % of control | [9] 91 % of control | [10] 90 % of control

Cc1ccc(N=C(c2ccccc2)N(O)c2ccc(Cl)cc2)cc1Cl
inactive: [6] 100 % of control | [7] 97 % of control | [14] 94 % of control

CC(=O)OCC1C(=O)OCC1C(=O)N1Cc2cc3ccccc3nc2C1 (configuration not stated)
inactive: dose: 6.25 mg/kg/injection, schedule: Q01DX009 (ip), vehicle: saline with Tween-80 100 % of control | dose: 8.0 mg/kg/injection, schedule: Q01DX009 (ip), vehicle: saline with Tween-80 104 % of control and 93 % of control and 97 % of control | dose: 12.5 mg/kg/injection, schedule: Q01DX009 (ip), vehicle: saline with Tween-80 113 % of control | dose: 16.0 mg/kg/injection, schedule: Q01DX009 (ip), vehicle: saline with Tween-80 105 % of control and 116 % of control and 98 % of control | dose: 25.0 mg/kg/injection, schedule: Q01DX009 (ip), vehicle: saline with Tween-80 105 % of control | dose: 32.0 mg/kg/injection, schedule: Q01DX009 (ip), vehicle: saline with Tween-80 113 % of control and 116 % of control and 97 % of control | [21] 105 % of control | dose: 64.0 mg/kg/injection, schedule: Q01DX009 (ip), vehicle: saline with Tween-80 99 % of control and 105 % of control | dose: 128.0 mg/kg/injection, schedule: Q01DX009 (ip), vehicle: saline with Tween-80 100 % of control and 106 % of control and 108 % of control

CC(=O)N/C(=C\c1ccccc1)C(=O)NC(C)C(=O)O (configuration not stated)
inactive: [18] 89 % of control | [19] 92 % of control | dose: 200.0 mg/kg/injection, schedule: Q01DX005 (ip), vehicle: saline with Tween-80 86 % of control

c1ccc2c(c1)ccc1c2nnc2nnnn21
inactive: [15] 104 % of control | [16] 105 % of control | [20] 95 % of control
